Compound: CC1=C(N=C(N=C1N)[C@H](CC(=O)N)NC[C@@H](C(=O)N)N)C(=O)N[C@@H]([C@H](C2=CN=CN2)OC3C(C(C(C(O3)CO)O)O)OC4C(C(C(C(O4)CO)O)OC(=O)N)O)C(=O)N[C@H](C)[C@H]([C@H](C)C(=O)N[C@@H]([C@@H](C)O)C(=O)NCCC5=NC(=CS5)C6=NC(=CS6)C(=O)NCCC[S+](C)C)O [Bleomycin] + O=C(c1cc(Cc2n[nH]c(=O)c3ccccc23)ccc1F)N1CCN(C(=O)C2CC2)CC1 [Olaparib] (partner 8 µM)
Test: relative viability (nuclei count vs DMSO), 5 days (fraction); higher = more cells survive
Conditions: first compound 0.01 µM; main component drawn
Outline: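 For relative viability, nuclei counts in treated wells were divided by those in vehicle wells. Lung cancer cell lines had been pin-tool dosed in 1536-well plates the day after seeding and cultured for 5 days, then fixed and stained in one step (final 0.05% Triton X-100, 1% formaldehyde, 1 ug/ml Hoechst) and imaged at 4×. Doses were one drug alone or a fixed anchor-drug dose plus five library-drug doses (not always all listed) in √10 steps, and values are duplicate-plate medians.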

First: LOU-NH91
Second: ChaGo-K-1
The relative viability of the first is higher: 0.604 for the first, 0.361 for the second.

First: NCI-H2170
Second: NCI-H3122
The relative viability of the first is lower: 0.508 for the first, 0.593 for the second.

Compared with HOP-62, HCC-44 is higher in relative viability: 0.175 for the first, 0.84 for the second.

Going from LU99A to BEN, the relative viability rises from 0.209 to 0.97.

Compared with HARA, HCC-78 is lower in relative viability: 0.733 for the first, 0.592 for the second.

Going from NCI-H441 to LCLC-97TM1, the relative viability falls from 0.539 to 0.211.

First: A-427
Second: NCI-H460
The relative viability of the first is higher: 0.58 for the first, 0.212 for the second.

Going from NCI-H727 to NCI-H1734, the relative viability falls from 0.732 to 0.505.

Going from NCI-H2405 to NCI-H1395, the relative viability falls from 0.668 to 0.434.

First: 201T
Second: NCI-H1915
The relative viability of the first is higher: 0.759 for the first, 0.2 for the second.

Going from HCC-827 to LXF-289, the relative viability rises from 0.522 to 0.887.

Going from NCI-H2347 to NCI-H650, the relative viability falls from 0.581 to 0.333.

Going from NCI-H1651 to EPLC-272H, the relative viability rises from 0.177 to 0.407.

First: NCI-H23
Second: NCI-H1792
The relative viability of the first is lower: 0.205 for the first, 0.34 for the second.

Going from NCI-H1355 to NCI-H322M, the relative viability falls from 0.669 to 0.612.

Same assay, conditions: first compound 0.03162 µM; main component drawn

First: LOU-NH91
Second: ChaGo-K-1
The relative viability of the first is higher: 0.521 for the first, 0.411 for the second.

Compared with NCI-H2170, NCI-H3122 is higher in relative viability: 0.523 for the first, 0.599 for the second.

Going from HOP-62 to HCC-44, the relative viability rises from 0.137 to 0.739.

First: LU99A
Second: BEN
The relative viability of the first is lower: 0.24 for the first, 1.03 for the second.

First: HARA
Second: HCC-78
The relative viability of the first is higher: 0.942 for the first, 0.617 for the second.

First: NCI-H441
Second: LCLC-97TM1
The relative viability of the first is higher: 0.505 for the first, 0.258 for the second.

Going from A-427 to NCI-H460, the relative viability falls from 0.566 to 0.159.

Compared with NCI-H727, NCI-H1734 is lower in relative viability: 0.634 for the first, 0.451 for the second.

Compared with NCI-H2405, NCI-H1395 is lower in relative viability: 0.757 for the first, 0.448 for the second.

First: 201T
Second: NCI-H1915
The relative viability of the first is higher: 0.763 for the first, 0.226 for the second.

Compared with LXF-289, NCI-H2347 is lower in relative viability: 0.831 for the first, 0.573 for the second.

Compared with NCI-H650, NCI-H1651 is lower in relative viability: 0.463 for the first, 0.153 for the second.

First: EPLC-272H
Second: NCI-H23
The relative viability of the first is higher: 0.237 for the first, 0.153 for the second.

Going from NCI-H1792 to NCI-H1355, the relative viability rises from 0.447 to 0.71.

With NCI-H322M the relative viability was 0.823.

Same assay, conditions: first compound 0.1 µM; main component drawn

Compared with LOU-NH91, ChaGo-K-1 is lower in relative viability: 0.432 for the first, 0.348 for the second.

Compared with NCI-H2170, NCI-H3122 is higher in relative viability: 0.397 for the first, 0.506 for the second.

First: HOP-62
Second: HCC-44
The relative viability of the first is lower: 0.0997 for the first, 0.657 for the second.

First: LU99A
Second: BEN
The relative viability of the first is lower: 0.202 for the first, 0.899 for the second.

First: HARA
Second: HCC-78
The relative viability of the first is higher: 0.701 for the first, 0.652 for the second.

First: NCI-H441
Second: LCLC-97TM1
The relative viability of the first is higher: 0.399 for the first, 0.148 for the second.

Compared with A-427, NCI-H460 is lower in relative viability: 0.455 for the first, 0.12 for the second.

NCI-H727 was tested, and the relative viability was 0.612.
